In patent publication US5079260A, “Method for treating inflammation and compounds and compositions suitable for use therein” (Nova Pharmaceutical Corporation, priority 1990, dated 1992):

Columns and labels:
[1] = system: Reverse Passive Artus Reaction; assay: Reverse Passive Artus Reaction (I), Table 6; type: in vivo, Male CD rats; conditions: inhibition of blueing
Text: (§1) Such inflammatory agents typically include tetradecanoylphorbolacetate, arachidonic acid, xylene, capsaicin, oxazolone, carrageenan and the like. The reverse passive Arthus test offers another measure of the compound's utility in preventing an inflammatory response (Chang et al, Eur. J. Pharm. 69:155-164 (1981)). Test compounds are typically administered intraperitoneally or topically. For intraperitoneal administration, the test compound can be given in dimethyl sulfoxide or in 0.5% methylcellulose 30 minutes prior to administration of the irritant. For topical administration, the test compound can be dissolved in, for example, acetone, ethanol or dimethyl sulfoxide and applied about 15 minutes prior to application of the irritant. Results can be expressed as the percent decrease in swelling in the compound-treated animals as compared to control animals that receive only the irritant.
Reverse Passive Artus Reaction (I)
Male CD rats weighing between 200 and 250 g were used. Test compounds (compounds of Formula I where X is oxygen, R3, R4, A and B are hydrogen and Q is as indicated in Table 6) were dissolved in dimethyl sulfoxide and 200 μl of this solution (100 mg/kg) were injected intraperitoneally one hour before administration of the antigen. The animals were anesthetized inhalationally with isoflurane and then were injected through the penile vein with 1 ml of a solution of 2.5 mg of Evan's blue dye and 5.0 mg of human serum albumin in 1 ml of saline. This treatment was followed immediately by intracutaneous injections of 0.03 ml of anti-human albumin diluted to contain 3.65 mg of antibody at 3 sites along the midline back. Anesthesia was terminated and after three hours the animals were sacrificed. The skin was removed and the blue stained areas cut out. […] The tube contents were agitated and centrifuged, and the absorbance of the supernatant liquid was measured at 620 nm. The data were calculated as inhibition of blueing by test compound compared to control animals receiving only antigen and antibody.

[2] = system: Ear Edema Caused by Oxazolone; assay: Inhibition of Ear Edema Caused by Oxazolone (I), Table 5; type: in vivo, CF-1 Mice; conditions: 24 h
Text: as §1
Inhibition of Ear Edema Caused by Oxazolone (I)
CF-1 Mice, 25-30 g body weight, six animals per group, were used. The mice were sensitized to the irritant two weeks prior to the test by dribbling 100 μl of a 3% solution of oxazolone in acetone onto the abdominal skin of the animal. Test compounds (compounds of Formula I where X is oxygen, R3, R4, A and B are hydrogen and Q is as indicated in Table 5) were administered intraperitoneally as follows. The test compound was dissolved in DMSO or 0.5% methylcellulose and 100 μl (100 mg/kg) was injected 30 minutes prior to irritant. The irritant, 3% oxazolone in acetone, was added to the surface of the ear, 5 μl added to the upper surface and 5 μl to the lower surface. After twenty four hours, the thickness of the ear was measured to 0.01 mm by a micrometer with loose drag positioned at the lateral-most edge of the mid-point of the pinna. Data were calculated as the inhibition by the test compound of increased ear thickness compared to control animals receiving only the irritant.

[3] = system: Ear Edema Caused by Xylene; assay: Inhibition of Ear Edema Caused by Xylene (II), Table 9; type: in vivo, CF-1 mice; conditions: i.p., 2 h
Summary of the method: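 CF-1 mice (25-30 g, six per group) received compound i.p. in DMSO or 0.5% methylcellulose 30 min before xylene was applied to both ear surfaces. Ear thickness was measured by micrometer 2 h later. Values are percent inhibition of the increase in ear thickness versus irritant-only controls.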

[4] = system: Ear Edema Caused By Tetradecanoylphorbol Acetate; assay: Inhibition of Ear Edema Caused by Tetradecanoylphorbol Acetate (II), Table 7; type: in vivo, CF-1 Mice; conditions: i.p., 3 h
[5] = system: Ear Edema Caused by Arachidonic Acid; assay: Inhibition of Ear Edema Caused by Arachidonic Acid (II), Table 8; type: in vivo, CF-1 mice; conditions: i.p., sixty minutes
Summary of the method: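 CF-1 mice (25-30 g, six/group) dosed intraperitoneally with compound in DMSO or 0.5% methylcellulose 30 min before topical arachidonic acid (100 mg/mL in ethanol, both ear surfaces).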

[6] = system: Ear Edema Caused by Tetradecanoylphorbolacetate; assay: Inhibition of Ear Edema Caused by Tetradecanoylphorbolacetate (I), Table 1; type: in vivo, CF-1 Mice; conditions: i.p.
Text: as §1
Inhibition of Ear Edema Caused by Tetradecanoylphorbolacetate (I)
CF-1 Mice, 25-30 g body weight, six animals per group, were used. Test compounds (compounds of Formula I where X is oxygen, R3, R4, A and B are hydrogen and Q is as indicated in Table 1) were administered intraperitoneally (100 mg/kg) or topically as follows. For intraperitoneal administration, the test compound was dissolved in dimethyl sulfoxide or 0.5% methylcellulose and 100 μl was injected 30 minutes prior to irritant (100 mg/kg, i.p.). For topical administration, the test compound was dissolved in either acetone, ethanol or dimethyl sulfoxide and 5 μl (100 μg) applied to the upper surface (1 cm^2) of the ear and an additional 5 μl (100 μg) applied to the lower surface (1 cm^2) of the ear fifteen minutes prior to application of the irritant. A solution of the irritant, tetradecanoylphorbolacetate, 200 μg/ml, was added to the surface of the ear, 5 μl added to the upper surface and 5 μl to the lower surface. After three hours, the thickness of the ear was measured to 0.01 mm by a micrometer with loose drag positioned at the lateral-most edge of the mid-point of the pinna. Data were calculated as the inhibition by the test compound of increased ear thickness compared to control animals receiving only the irritant.

[7] = system: Reverse Passive Artus Reaction; assay: Reverse Passive Artus Reaction (II), Table 11; type: in vivo, Male CD rats; conditions: inhibition of blueing, i.p.
Experimental: Reverse Passive Artus Reaction (II) Male CD rats weighing between 200 and 250 g were used. […] The animals were anesthetized inhalationally with isoflurane and then injected through the penile vein with 1 mL of a solution of 2.5 mg of Evan's blue dye and 5.0 mg of human serum albumin in 1 mL of saline. This treatment was followed immediately by intracutaneous injections of 0.03 mL of anti-human albumin diluted to contain 3.65 mg of antibody at 3 sites along the midline back. Anesthesia was terminated and after three hours, the animals were sacrificed. The skin was removed and the blue stained areas cut out. The skin patches were soaked overnight in stoppered tubes containing 1 mL of 1 N potassium hydroxide at 37° C. Then 9 mL of a mixture of five parts of a 0.6 N phosphoric acid and thirteen parts of acetone were added to the tubes. The tube contents were agitated and centrifuged, and the absorbance measured at 620 nm. The data were calculated as inhibition of blueing by test compound compared to control animals receiving only antigen and antibody.

[8] = system: Ear Edema Caused by Xylene; assay: Inhibition of Ear Edema Caused by Xylene (I), Table 3; type: in vivo, CF-1 Mice; conditions: 2 h; for % Inhibition Intraperitoneal: i.p., 100 mg/kg, 30 min before irritant
Text: as §1
Inhibition of Ear Edema Caused by Xylene (I)
CF-1 Mice, 25-30 g body weight, six animals per group, were used. Test compounds (compounds of Formula I where X is oxygen, R3, R4, A and B are hydrogen and Q is as indicated in Table 3) were administered intraperitoneally (100 mg/kg) or topically as follows. For intraperitoneal administration, the test compound was dissolved in DMSO or 0.5% methylcellulose and 100 μl was injected 30 minutes prior to irritant. For topical administration, test compound was dissolved in either acetone, ethanol or dimethyl sulfoxide and 5 μl (10 μg) applied to the upper surface (1 cm^2) of the ear and an additional 5 μl (10 μg) applied to the lower surface (1 cm^2) of the ear fifteen minutes prior to application of the irritant. The irritant, xylene, was added to the surface of the ear, 20 μl added to the upper surface and 20 μl to the lower surface. After two hours, the thickness of the ear was measured to 0.01 mm by a micrometer with loose drag positioned at the lateral-most edge of the mid-point of the pinna. Data were calculated as the inhibition by the test compound of increased ear thickness compared to that of control animals receiving only the irritant.

[9] = system: Ear Edema Caused by Arachidonic Acid; assay: Inhibition of Ear Edema Caused by Arachidonic Acid (I), Table 2; type: in vivo, CF-1 Mice; conditions: i.p., 100 mg/kg; ear thickness at sixty minutes
Text: as §1
Inhibition of Ear Edema Caused by Arachidonic Acid (I)
CF-1 Mice, 25-30 g body weight, six animals per group, were used. Test compounds (compounds of Formula I where X is oxygen, R3, R4, A and B are hydrogen and Q is as indicated in Table 2) were administered intraperitoneally (100 mg/kg) as follows. For intraperitoneal administration, test compound was dissolved in DMSO or 0.5% methylcellulose and 100 μl was injected 30 minutes prior to i.p. administration of 100 mg/kg of arachidonic acid. A solution of the irritant, arachidonic acid, 100 mg/ml in ethanol, was added to the surface of the ear, 5 μl added to the upper surface and 5 μl to the lower surface. After sixty minutes, the thickness of the ear was measured to 0.01 mm by a micrometer with loose drag positioned at the lateral-most edge of the mid-point of the pinna. Data were calculated as the percent inhibition by the test compound of increased ear thickness compared to control animals receiving only the irritant.

[10] = system: Ear Edema Caused by Oxazolone; assay: Inhibition of Ear Edema Caused by Oxazolone (II), Table 10; type: in vivo, CF-1 mice; conditions: i.p., 24 h
[11] = system: Adjuvant Induced Fibrinogen; assay: Adjuvant Arthritis: Inhibition of Adjuvant Induced Fibrinogen, Table 12; type: in vivo, Male Sprague Dawley rats; conditions: i.p., 100 mg/kg, day 3
[12] = 100 mg/kg, 30 min before irritant, ear thickness at 3 h

Structure (SMILES)	% Inhibition ([3]; 10 mg/kg) [%]	% Inhibition Intraperitoneal ([4]; 10 mg/kg) [%]	% Inhibition Intraperitoneal ([5]; 10 mg/kg) [%]	% Inhibition Intraperitoneal [8] [%]	% Inhibition Intraperitoneal [9] [%]	% Inhibition Intraperitoneal [6, 12] [%]	% Inhibition Intraperitoneal ([10]; 10 mg/kg) [%]	% Inhibition Intraperitoneal ([10]; 30 mg/kg) [%]	% Inhibition Intraperitoneal ([10]; 100 mg/kg) [%]	% Inhibition ([3]; 30 mg/kg) [%]	% Inhibition ([3]; 100 mg/kg) [%]	% Inhibition [11] [%]	% Inhibition Intraperitoneal ([4]; 30 mg/kg) [%]	% Inhibition Intraperitoneal ([4]; 100 mg/kg) [%]	% Inhibition Intraperitoneal ([5]; 30 mg/kg) [%]	% Inhibition Intraperitoneal ([5]; 100 mg/kg) [%]	% Inhibition Intraperitoneal ([7]; 100 mg/kg) [%]	other results
COc1cc2c(c(OC)c1OC)-c1ccc(OC)c(=O)cc1[C@@H](NC(C)=O)CC2 [Colchicine, reference compound]	–	–	–	–	–	–	–	–	–	–	–	–	–	–	–	–	–	% Inhibition Intraperitoneal ([1]; Reference Standard 1 mg/kg): 64%
C[C@@H]1C[C@H]2[C@@H]3CCC4=CC(=O)C=C[C@]4(C)[C@@]3(F)[C@@H](O)C[C@]2(C)[C@@]1(O)C(=O)CO [Dexamethasone, reference compound]	34	50	12	–	–	–	–	–	–	–	–	–	–	–	–	–	–	% Inhibition Intraperitoneal ([2]; Reference Standard at 10 mg/kg): 48%; % Inhibition Intraperitoneal ([6]; Reference Standard, 10 mg/kg, 3 h): 50%; % Inhibition Intraperitoneal ([7]; 10 mg/kg): 4%
O=C(N[C@@H](Cc1ccccc1)C(=O)O)OCC1c2ccccc2-c2ccccc21 [L-Phenylalanine, N-[(9H-Fluoren-9-ylmethoxy)carbonyl]-L-phenylalanine]	–	–	–	49	70	78	–	–	–	–	–	–	–	–	–	–	–	% Inhibition, topical ([8]; topical, 10 μg upper + 10 μg lower ear surface, 15 min before irritant): 50%; % Inhibition Intraperitoneal ([2]; i.p., 100 mg/kg, 30 min before irritant, sensitized mice): 62%; % Inhibition Intraperitoneal ([1]; i.p., 100 mg/kg, one hour before antigen): 47%
CC(C)C[C@H](NC(=O)OCC1c2ccccc2-c2cc3ccccc3cc21)C(=O)O (stereo partly drawn) [NPC 15510, N-[9H-(2,3-Benzofluoren-9-ylmethoxy)carbonyl]-L-leucine]	40	48	-24	–	–	–	-7	3	101	40	49	35	70	70	69	67	50	–
CC(C)C[C@H](NC(=O)OCC1c2ccccc2-c2ccccc21)C(N)=O [NPC 15528, N-[(9H-Fluoren-9-ylmethoxy)carbonyl]-L-leucine Amide]	20	61	31	–	–	–	41	25	46	27	39	0	64	75	32	35	0	–
CN1C(C(=O)Nc2ccccn2)=C(O)c2ccccc2S1(=O)=O [Piroxicam, reference compound]	53	7	56	74	86	40	–	–	–	49	74	–	14	40	77	86	–	–
